This note sets out measurements from patent US20090264648A1, “SYNTHESIS OF PYRAZOLES” (WYETH, priority 2008, published 2009).

Data set [1] in a line: Hygroscopicity test / Dynamic Vapor Sorption (DVS) of hydrochloride salt crystal forms. It is filed as physicochemical. The settings on record: for Water absorbed eventually: 90% RH. The method, then: Evidence of a hydrochloride hydrate was not observed after the hygroscopicity test.
Dynamic Vapor Sorption (DVS) was done at 25-26° C.

The nature of data set [2]: Hygroscopicity noted on isolation of the hydrochloride salt. The class given is physicochemical. The settings on record: salt precipitated from DCM with HCl in Et2O. The protocol:
5-(4-acetyl-[1,4]diazepan-1-yl)-pentanoic acid [5-(4-methoxy-phenyl)-1H-pyrazol-3-yl]-amide (1.05 g, 2.54 mmol) was dissolved in a minimum amount of DCM (5 mL) and cooled to 0° C. HCl (2.0 M in Et20, 1.4 mL, 2.89 mmol) was added and the mixture stirred at rt until precipitation of the salt was complete (about 10 min.). The solid was filtered, washed with Et2O several times, and dried in a dessicator to yield 1.09 g of the hydrochloride salt (2.42 mmol, 95% yield). […] MS (ES+): 414.26 (M+H)^+.

Entries after “also recorded” stand apart in the source; their conditions may differ. Where a name gives a salt, the structure may show the parent alone. Read-outs that look alike come from different tables or passages of the source.

As to `COc1ccc(-c2cc(NC(=O)CCCCN3CCCN(C(C)=O)CC3)[nH]n2)cc1` (as salt: hydrochloric acid salt) [5-(4-Acetyl-[1,4]diazepan-1-yl)-pentanoic acid [5-(4-methoxy-phenyl)-2H-pyrazol-3-yl]-amide], the melting point amounted to 185 °C.

Turning to `COc1ccc(-c2cc(NC(=O)CCCCN3CCCN(C(C)=O)CC3)[nH]n2)cc1` [Form III, 5-(4-Acetyl-[1,4]diazepan-1-yl)-pentanoic acid [5-(4-methoxy-phenyl)-2H-pyrazol-3-yl]-amide], in data set [1] (listed as Crystal Form III), the “Hygroscopicity (in words), Crystal Form Table” value is “Hygroscopic”.

With `COc1ccc(-c2cc(NC(=O)CCCCN3CCCN(C(C)=O)CC3)[nH]n2)cc1` [Form I, 5-(4-acetyl-1,4-diazepan-1-yl)-N-(5-(4-methoxyphenyl)-1H-pyrazol-3-yl)pentanamide hydrochloric salt Form I], in data set [1], the “Behaviour of absorbed water on decreasing RH” value is listed as “loses it without significant hysteresis on decreasing RH; also recorded: loses the water as RH decreases”, the “Evidence of a hydrochloride hydrate after the hygroscopicity test” value is “not observed” and the “Hygroscopicity (in words)” value is on record as “relatively non-hygroscopic”. The Moisture gained entry in data set [1] (70-100% RH) is on record as “at least 2%”. For the same compound, in data set [1] (DVS at 25-26° C.), the Water absorbed eventually result is reported as “up to 2%” and the “Relative humidity (RH) at which the form picks up moisture” value is given as “about 50%”. In data set [1] (RH less than or equal to 70%), the “Moisture gained when equilibrated” value is recorded as “about 0.5%”. Besides, the “Hygroscopicity (in words), Crystal Form Table” value in data set [1] (listed as Crystal Form I) is listed as “Non-hygroscopic”.

The compound `COc1ccc(-c2cc(NC(=O)CCCCN3CCCN(C(C)=O)CC3)n[nH]2)cc1.Cl` [Compound I, 5-(4-acetyl-1,4-diazepan-1-yl)-N-(5-(4-methoxyphenyl)-1H-pyrazol-3-yl)pentanamide hydrogen chloride] had a melting point of 132 to 133 °C. Besides, the “Hygroscopicity of the sample” value in data set [2] is given as “extreme hygroscopicity”.

For the compound `COc1ccc(-c2cc(NC(=O)CCCCN3CCCN(C(C)=O)CC3)[nH]n2)cc1` [Crystal Form V, 5-(4-Acetyl-[1,4]diazepan-1-yl)-pentanoic acid [5-(4-methoxy-phenyl)-2H-pyrazol-3-yl]-amide], in data set [1], the “Hygroscopicity (in words), Crystal Form Table” value was “Hygroscopic” and the “Water at RH 50%” value is recorded as 7%.

Consider `COc1ccc(-c2cc(NC(=O)CCCCN3CCCN(C(C)=O)CC3)[nH]n2)cc1` [Form II, 5-(4-acetyl-1,4-diazepan-1-yl)-N-(5-(4-methoxyphenyl)-1H-pyrazol-3-yl)pentanamide hydrochloric salt Form II], for which, in data set [1], the “Hygroscopicity (in words)” value was “non-hygroscopic”. In data set [1] (DVS at 25-26° C.), the Water absorbed eventually entry is listed as “up to 7%” and the “Relative humidity (RH) at which the form picks up moisture” value is given as “about 20%”. Moreover, the “Water held at low RH” value in data set [1] (RH 0%, DVS at 25-26° C.) came to 2%. In data set [1] (listed as Crystal Form II), the “Water at RH 50%” value is on record as “hygroscopic (5%” and the “Hygroscopicity (in words), Crystal Form Table” value was “Somewhat”.
